Source: patent US8829033B2, “N-benzylamide substituted derivatives of 2-(acylamido)acetic acid and 2-(acylamido)propionic acids: potent neurological agents” (The University of North Carolina at Chapel Hill, priority 2009, dated 2014)
Like-named read-outs stand apart in the source and are kept apart here.

Legend:
[1] = tested on: Rat; assay: Behavioral toxicity, rat (po); type: in vivo; conditions: behavioral toxicity
Procedure: (§1) Tests are conducted in groups of at least 8 mice or rats to determine the intrinsic neurotoxicity (neuromuscular impairment) after administration of the test compound by the route of administration to be used in the pharmacology studies. Neurotoxicity is determined in male CF No 1 mice by the rotarod procedure. Inability of the mouse to maintain its equilibrium in 3 trials during 1 min on this rotating rod (6 rpm) is used as an indication of such impairment. In Sprague-Dawley rats, minimal motor impairment (MMI) is determined by overt evidence of ataxia, abnormal gait, and stance.

[2] = Neurological toxicity, rotorod test, mice (ip); type: in vivo; conditions: male, CF No 1, mouse, in vivo
Procedure: as §1

[3] = tested on: Mice; assay: Formalin test (mice, ip); type: in vivo; conditions: for Formalin Assay Acute (%) / Formalin Assay Inflam. (%): mice, ip; for Formalin Test (mice, ip) Inflammatory (%): duration of licking as percent of control, late phase
Procedure: Compounds of the present invention were active in treating pain in a formalin test carried out in accordance with standard techniques, as described in S. Hunskaar et al., J. Neurosci. Methods 14: 69-76 (1985). Briefly, 0.5% formalin is injected into the mouse hind paw to elicit a bi-phasic licking response, where the first acute phase is thought to correspond to the direct stimulation of peripheral fibers and the second (inflammatory) phase is caused by the release of inflammatory mediators.
Spinal/supraspinal plasticity of nociception is considered as a molecular basis for neuropathic pain particularly during the second (late) phase of the test (Dubuisson & Dennis, 1977; Coderre et al., 1990; Coderre & Melzack, 1992), during which most clinically used drugs against neuropathic pain are active.

[4] = tested on: Rat; assay: Maximal electroshock seizure (MES) test, rat (po); type: in vivo; conditions: for ED50: read-out: Rat (po) MES, ED50
Procedure: (§2) The maximal electroconvulsive shock (MES) test is regarded as a standard screen for anticonvulsant activity in terms of inhibition of seizure spread in generalized tonic-clonic seizures.
(§3) Groups of at least 8 male albino CF No. 1 mice or male albino Sprague-Dawley rats are treated with 10 mL/kg i.p. or 4 mL/kg p.o. of the test compound solution, respectively. The electrical stimulus in the MES test is 50 mA at 60 Hz for mice and 150 mA at 60 Hz for rats, both delivered for 0.2 sec. Abolition of the hind leg tonic extensor component of the seizure is used as the endpoint.

[5] = tested on: Mice; assay: Maximal electroshock seizure (MES) test, mice (ip);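 further: male albino CF No. 1 mice dosed ip, MES stimulus 50 mA at 60 Hz lasting 0.2 s, efficacy endpoint is loss of hind leg tonic extension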
Procedure: as §2, §3

[6] = tested on: Mice; assay: 6 Hz test, mice (ip); type: in vivo; conditions: Mus musculus, ip, intraperitoneally
[7] = tested on: Mice; assay: Neurological toxicity, rotorod test, mice (ip); type: in vivo; conditions: for Mice (ip) Tox, Td50: rotorod test; for Mice (ip) Tox, TD50: Table b500, rotorod test
Procedure: as §1

[8] = tested on: Rats; assay: Hippocampal kindling test, rats (ip); type: in vivo; conditions: for ED50: Rattus norvegicus, ip, read-out: Hippocampal Kindled Rats (ip) ED50 (interval)
Procedure: The kindling model provides a tool to predict a test compound's activity in complex partial seizures.
Male albino Sprague-Dawley rats (n=8) are kindled to a Stage 5 behavioral seizure. They are treated with an appropriate i.p. dose of the test compound after a 1-week, stimulus-free period. The test compound is evaluated for its effect on kindled motor seizures (seizures scores of 4 and 5), limbic behavior seizures (seizure scores between 1 and 3) and after-discharge duration. After 15 min, each rat is stimulated every 30 min for 3-4 h. Following each stimulation, individual seizure scores and after-discharge duration are recorded. The group mean and standard error of the mean (SEM) are calculated for each parameter.

[9] = tested on: Rat; conditions: cited from earlier work
[10] = tested on: Mice; conditions: cited from earlier work
[11] = rotorod test, read-out: Mice (ip) Tox, TD50
[12] = rotorod test, read-out: Mice (ip) Tox, Td50
[13] = Table b502, protective index (TD50/ED50)

Structure (SMILES): CC(=O)N[C@H](C)C(=O)NCc1ccc(OCc2cccc(F)c2)cc1
- melting point: 158 °C

Structure (SMILES): COCCCc1ccc(CNC(=O)[C@@H](COC)NC(C)=O)cc1
- melting point: 105 to 107 °C

Structure (SMILES): COCc1ccc(CNC(=O)[C@@H](COC)NC(C)=O)cc1
- melting point: 119 to 120 °C

Structure (SMILES): CC(=O)N[C@@H](C(=O)NCc1ccc(OCc2cccc(F)c2)cc1)C(C)(C)C
- melting point: 64 to 66 °C

Structure (SMILES): CC(=O)NC(C(=O)NCc1ccc(OCc2cccc(F)c2)cc1)c1ccccn1 (racemic) [(R, S)-9, N-4-(3-Fluorobenzyloxy)benzyl 2-Acetamido-2-(pyridin-2-yl)acetamide]
- Rat (po) Tox, TD50 ([1]; Table b500, orally): >30 [4] mg/kg
- TD50 [2, 11]: 210 mg/kg
- melting point: 154 to 155 °C

Structure (SMILES): COC[C@@H](NC(C)=O)C(=O)NCc1ccc(N=[N+]=[N-])cc1 [(R)-5, (R)—N-(4-Azidobenzyl)-2-acetamido-3-methoxypropanamide]
- Formalin Assay Acute (%) ([3]; dose 8.0 (mg)): 59%
- Formalin Assay Inflam. (%) ([3]; dose 8.0 (mg)): 106%
- Rat (po) PI ([4]; PI=TD50/ED50): >64
- Mice (ip) PI ([5]; ip, PI=TD50/ED50): 5.5
- melting point: 149 to 150 °C

Structure (SMILES): COC[C@@H](NC(C)=O)C(=O)NCc1ccc(CCc2cccc(F)c2)cc1 [(R)-13]
- Mice (ip) MES, ED50 ([5]; Table b501, intraperitoneally): >10, <30 [0.5] mg/kg
- Rat (po) Tox, TD50 ([1]; Table b501, orally): >30 [1] mg/kg
- TD50 [2, 12]: 30 to 100 mg/kg
- melting point: 134 to 136 °C

Structure (SMILES): COC[C@@H](NC(C)=O)C(=O)NCc1ccc(/C=C/c2cccc(F)c2)cc1 [(R)-14, (2-R,E)-N-4-(3-Fluorostyryl)benzyl 2-Acetamido-3-methoxypropionamide]
- ED50 [6]: < 30 mg/kg
- Mice (ip) MES, ED50 ([5]; Table b501, intraperitoneally): >30, <100 [0.5] mg/kg
- TD50 [2, 12]: 100 to 300 mg/kg
- melting point: 206 to 208 °C

Structure (SMILES): COC[C@@H](NC(C)=O)C(=O)NCc1ccc(C#Cc2cccc(F)c2)cc1 [(R)-15, (R)—N-4-((3-Fluorophenyl)ethynyl)benzyl 2-Acetamido-3-methoxypropionamide]
- ED50 ([4]; orally): 1.4 mg/kg
- Mice (ip) MES, ED50 ([5]; Table b501, intraperitoneally): >30, <100 [1.0, 4.0] mg/kg
- TD50 [2, 12]: 100 to 300 mg/kg
- melting point: 200 to 202 °C

Structure (SMILES): COC[C@@H](NC(C)=O)C(=O)NCc1ccc(COc2cccc(F)c2)cc1 [(R)-16, (R)—N-4-((3-Fluorophenoxy)methyl)benzyl 2-Acetamido-3-methoxypropionamide]
- Rat (po) PI ([4]; Table b501, protective index (TD50/ED50)): >21
- Mice (ip) MES, ED50 ([5]; Table b501, intraperitoneally): 5.9 [0.25] mg/kg
- Mice (ip) PI ([5]; Table b501, ip, protective index (TD50/ED50)): 1.8
- Mice (ip) Tox, Td50 [7]: 10 [0.25] mg/kg

Structure (SMILES): COC[C@@H](NC(C)=O)C(=O)NCc1ccc(NCc2cccc(F)c2)cc1 [(R)-17, (R)—N-4-(3-Fluorobenzylamino)benzyl 2-Acetamido-3-methoxypropionamide]
- Mice (ip) MES, ED50 ([5]; Table b501, intraperitoneally): >10, <30 [0.5] mg/kg
- TD50 [2, 12]: 30 to 100 mg/kg
- melting point: 78 to 81 °C

Structure (SMILES): COC[C@@H](NC(C)=O)C(=O)NCc1ccc(COCc2cccc(F)c2)cc1 [(R)-18, (R)—N-4-(((3-Fluoro)benzyloxy)methyl)benzyl 2-Acetamido-3-methoxypropionamide]
- Mice (ip) MES, ED50 ([5]; Table b501, intraperitoneally): >30, <100 [0.5] mg/kg
- Mice (ip) Tox, Td50 [7]: >30, <100 [0.5] mg/kg

Structure (SMILES): COC[C@@H](NC(C)=O)C(=O)NCc1ccc(OCCc2cccc(F)c2)cc1 [(R)-19, (R)—N-4′-((3″-Fluoro)phenethoxy)benzyl 2-N-Acetamido-3-methoxypropionamide]
- Mice (ip) MES, ED50 ([5]; Table b501, intraperitoneally): >30, <100 [0.5, 4.0] mg/kg
- TD50 [2, 12]: 30 to 100 mg/kg
- melting point: 147 to 148 °C

Structure (SMILES): COC[C@@H](NC(C)=O)C(=O)NCc1ccc(OCc2ccccc2)cc1 [(R)-20, (R)—N-4′-(Benzyloxy)benzyl 2-N-Acetamido-3-methoxypropionamide]
- ED50 ([4]; Rattus norvegicus, Table b502, orally): 5.6 mg/kg
- Rat (po) PI [4, 13]: >45
- Mice (ip) MES, ED50 ([5]; Table b502, intraperitoneally): 5.8 [0.25] (4.4-7.2) mg/kg
- Mice (ip) PI ([5]; Table b502, ip, protective index (TD50/ED50)): 3.8
- Rat (po) Tox, TD50 ([1]; Table b502, orally): >250 [1.0] mg/kg
- TD50 [2, 11]: 22 mg/kg
- melting point: 149 °C

Structure (SMILES): COC[C@@H](NC(C)=O)C(=O)NCc1ccc(OCc2ccccc2F)cc1 [(R)-21, (R)—N-4-(2-Fluorobenzyloxy)benzyl 2-Acetamido-3-methoxypropionamide]
- Rat (po) PI [4, 13]: >45
- Mice (ip) MES, ED50 ([5]; Table b502, intraperitoneally): 6.7 [0.25] (4.8-9.1) mg/kg
- TD50 [2, 11]: 37 mg/kg
- melting point: 173 to 174 °C

Structure (SMILES): COC[C@@H](NC(C)=O)C(=O)NCc1ccc(OCc2ccc(F)cc2)cc1 [(R)-22, (R)—N-4-(4-Fluorobenzyloxy)benzyl 2-Acetamido-3-methoxypropionamide]
- Rat (po) PI [4, 13]: >86
- Mice (ip) MES, ED50 ([5]; Table b502, intraperitoneally): >10, <30 [0.5] mg/kg
- TD50 [2, 11]: 30 to 100 mg/kg
- melting point: 166 to 167 °C

Structure (SMILES): COC[C@@H](NC(C)=O)C(=O)NCc1ccccc1 [(R)-B, (2R)-2-(acetylamino)-N-benzyl-3-methoxypropanamide, reference compound]
- ED50 [8]: 14 mg/kg
- Formalin Test (mice, ip) Inflammatory (%) ([3]; dose 5 mg/kg): 31 [<0.01] %

Structure (SMILES): COC[C@H](NC(C)=O)C(=O)NCc1ccc(OCc2cccc(F)c2)cc1 [(S)-3, (S)-2-Acetamido-N-(4-(3-fluorobenzyloxy)benzyl)-3-methoxypropanamide]
- Mice (ip) MES, ED50 ([5]; ip): >300 [0.5]

Structure (SMILES): COC[C@H](NC(C)=O)C(=O)NCc1ccc(N=[N+]=[N-])cc1 [(S)-5, (S)—N-(4-Azidobenzyl)-2-acetamido-3-methoxypropanamide]
- TD50 ([2]; read-out: Mice (ip) Tox, TD50): > 300 mg/kg
- melting point: 149 to 150 °C

Structure (SMILES): CC(=O)N[C@@H](C)C(=O)NCc1ccc(OCc2cccc(F)c2)cc1 [(S)-6, (S)—N-4-(3-Fluorobenzyloxy)benzyl 2-Acetamidopropionamide]
- Rat (po) Tox, TD50 ([1]; Table b500, orally): >30 [0.25 to mg/kg
- Mice (ip) Tox, TD50 [7]: >300 [0.5] mg/kg
- melting point: 153 to 154 °C

Structure (SMILES): COC[C@H](NC(C)=O)C(=O)NCc1ccc(OCc2cccc(F)c2)cc1 [(S)-10, (S)-2-Acetamido-N-(4-(3-fluorobenzyloxy)benzyl)-3-methoxypropanamide]
- Mice (ip) Mes, ED50 ([5]; Table b500, intraperitoneally): >300 mg/kg
- Mice (ip) Tox, TD50 [7]: >300 mg/kg

Structure (SMILES): CC(=O)NC(C(=O)NCc1ccccc1)c1ccccc1 (centres unmarked) [C, reference compound]
- MES ED50 ([5]; ip): 32 mg/kg

Structure (SMILES): CC(=O)NC(C(=O)NCc1ccc(C)cc1)c1ccccc1 (centres unmarked) [D, reference compound]
- MES ED50 ([5]; ip): ~300 mg/kg

Structure (SMILES): COC[C@@H](NC(C)=O)C(=O)NCc1ccc([N+](=O)[O-])cc1 [F, reference compound]
- MES ED50 ([5]; ip): >100, <300 mg/kg

Structure (SMILES): COC[C@@H](NC(C)=O)C(=O)NCc1ccccc1 [H, reference compound]
- Formalin Assay Acute (%) ([3]; dose 16 (mg)): 100%
- Formalin Assay Inflam. (%) ([3]; dose 16 (mg)): 44%

Structure (SMILES): CC(=O)NCC(=O)NCc1ccc(OCc2cccc(F)c2)cc1 [compound 5, N-4-(3-Fluorobenzyloxy)benzyl 2-Acetamidoacetamide]
- Rat (po) PI ([4]; Table b500, protective index (TD50/ED50)): >16
- Rat (po) Tox, TD50 ([1]; Table b500, orally): >500 [1.0] mg/kg

Structure (SMILES): CCC1(c2ccccc2)C(=O)NC(=O)NC1=O [phenobarbital]
- ED50 [8]: 20 mg/kg

Structure (SMILES): O=C1NC(=O)C(c2ccccc2)(c2ccccc2)N1 [phenytoin]
- ED50 ([8]; rats): 34 mg/kg
- Preliminary Hippocampal Kindling Test (Rats) Seizure Score, Drug ([8]; rats, after drug (pre-drug score in neighbouring column)): 3
- Formalin Test (mice, ip) Inflammatory (%) ([3]; dose 6 mg/kg): 21 (5) %
- Rat (po) MES, ED50 ([9]; Ref 16, 32): 30 [4.0] mg/kg
- Rat (po) PI ([9]; Ref 32): >100
- Rat (po) MES, ED50 ([9]; reference drugs marked h): 30 [4]
- Rat (po) PI ([9]; reference drugs marked h): >100

Structure (SMILES): CCCC(CCC)C(=O)O [valproate]
- ED50 ([8]; rats): 214 mg/kg
- Formalin Test (mice, ip) Inflammatory (%) ([3]; dose 300 mg/kg): 67 (20) %
- Mice (ip) Mes, ED50 ([10]; Ref 30, 16, 32): 270 [0.25] mg/kg
- Mice (ip) PI ([10]; Ref 32): 1.6
- Mice (ip) MES, ED50 ([10]; reference drugs marked h): 270 [0.25]
- Mice (ip) PI ([10]; reference drugs marked h): 1.6
- Rat (po) MES, ED50 ([9]; Ref 16, 32): 490 [0.5] mg/kg
- Rat (po) PI ([9]; Ref 32): 0.6
- Rat (po) MES, ED50 ([9]; reference drugs marked h): 490 [0.5]
- Rat (po) PI ([9]; reference drugs marked h): 0.6
